Measurements taken from patent US8008329B2 (Dong Wha Pharmaceutical Co., Ltd., priority 2008, dated 2011).
Marks after values point to notes of the source that are not given here.

Test system: osteoclast differentiation
Assay: Osteoclast differentiation in co-culture of mouse bone marrow cells and ST2 cells, TRAP staining (Examples 8-9)
Assay type: cell-based
Conditions: for % number of osteoclast (vs. solvent control group): 0.1 μM each, day 7; for activity at 0.1 µM: Mus musculus, Osteoclast, 168 h, Individual treatment (compounds), day 7, read-out: % number of osteoclast (vs. solvent control group)
Procedure: The differentiation of osteoclast from mouse bone marrow cells was induced by using co-culture system, and inhibitory effect of the drug on osteoclast differentiation was evaluated by treatment of single or combination formulation. Co-culture was performed using mouse bone marrow cells and ST cells of bone marrow-derived stromal cell.
Femora and tibia were aseptically ectomized from 6˜8 week-old male ddY mice to harvest bone marrow cells by a general method using a syringe. The red blood cells were removed from the bone marrow cells, followed by centrifugation. The bone marrow cells were suspended in α-MEM medium supplemented with 10% fetal bovine serum, and the numbers of the eukaryotic cells in the harvested bone marrow cells were counted and then immediately used for a co-culture system.
ST2 cells (RIKEN Cell Bank, Tsukuba, Japan) were cultured in α-MEM medium supplemented with 10% fetal bovine serum until confluent. Then, these cells were diluted to a desired cell number, and used for the experiment.
The bone marrow cells (1×10^5 cells/well) and ST2 cells (3,000 cells/well) prepared in the above were plated in a 96-well plate using α-MEM medium supplemented with 10% fetal bovine serum. At this time, differentiation factors, 1α,25-dihydroxyvitamin D3 (10^−8 M, hereinbelow, referred to as vitamin D3) and dexamethasone (10^−8 M), were co-added to the medium to induce osteoclast differentiation. The medium was replaced with fresh media containing the differentiation factors every 2 to 3 days.
After 7 days, when multinucleated osteoclasts were observed, the medium was removed from the wells, and then the cells were fixed with PBS containing 10% Formalin. Tartrate-Resistant Acid Phosphatase (hereinbelow, referred to as TRAP) was used as a marker to measure the mature osteoclast in consideration of its characteristics showing a positive reaction to a TRAP staining solution. The TRAP staining solution was prepared in such the manner that a substrate, naphtol AS-MS phosphate and a coloring agent (Fast Red Violet LB salt) were dissolved in N,N-dimethylformamide. A 0.1 N NaHCO3 buffer solution containing 50 mM tartaric acid was added thereto, and the mixture was stored at a refrigerator prior to use as a staining solution. The osteoclasts with 6-7 or more nuclei showing a TRAP-positive reaction were counted under a microscope.
Alendronic acid was dissolved in distilled water at a concentration of 0.1 mM, and benzamidine derivatives were dissolved in DMSO at a concentration of 0.1 mM. All of them were diluted 1,000 fold with the differentiation media to a final concentration of 0.1 μM, respectively. In this connection, a control group was maintained in 0.1% DMSO.
As the above described, the sample substances and cells, which were diluted to the desired concentrations, were plated in 96-well plate, and co-cultured. On days 3 and 5 of culture, the media were replaced with fresh differentiation media containing the sample substances. On day 7 of culture, TRAP staining was performed to count the mature multinucleated osteoclast that was formed by differentiation. The mature osteoclasts with 6 or more nuclei were counted under a microscope. The results were expressed as a percentage (%) of the number of mature osteoclast observed in each experimental group, when the number of mature osteoclast in the control group (solvent only) was regarded as 100%. The experiment was performed with 4 wells per experimental group (n=4), and the results were expressed as mean value±standard deviation. In addition, the experiment was repeated at least two times, and Student t-test was applied for significant difference between experimental groups.
The experiment was performed in the same manner as in Example 8 to evaluate the effect of individual or combination treatment of risedronic acid and benzamidine derivatives of Formula 1 on osteoclast differentiation, except using 0.1 μM risedronic acid instead of 0.1 μM alendronic acid. […]

[1] = Combination treatment (alendronic acid + compounds)
[2] = Combination treatment (risedronic acid + compounds)

| SMILES | % number of osteoclast (vs. solvent control group) [1] | % number of osteoclast (vs. solvent control group) [2] | activity at 0.1 µM [%] |
| --- | --- | --- | --- |
| Cc1sc(NC(=O)CO)nc1-c1ccc(OCCCCCOc2ccc(C(=N)NO)cc2)cc1 [Compound 90, N-hydroxy-4-{5-[4-(2-hydroxyacetylamino-5-methyl-1,3-thiazol-4-yl)phenoxy]pentyloxy}-benzamidine] | 54 ± 8.6^ab % | 39 ± 8.4^ac % | 87 ± 10 |
| CCc1sc(N(CCO)CCO)nc1-c1ccc(OCCCCCOc2ccc(C(=N)NO)cc2)cc1 [Compound 139, N-hydroxy-4-[5-(4-{2-[bis-(2-hydroxyethyl)amino]-5-ethyl-1,3-thiazol-4-yl}phenoxy)pentyloxy]-benzamidine] | 49 ± 7.8% | 38 ± 6.9^ac % | 64 ± 4.6 |
| CCc1sc(N2CCN(C)CC2)nc1-c1ccc(OCCCCCOc2ccc(C(=N)NO)cc2)cc1 [Compound 174, N-hydroxy-4-{5-(4-[5-ethyl-2-(4-methylpiperazino)-1,3-thiazol-4-yl]phenoxy)pentyloxy}-benzamidine] | 46 ± 2.6^ab % | 35 ± 5.1^ac % | 70 ± 2.5 |
| Cc1nc(-c2ccc(OCCCCCOc3ccc(C(=N)NO)cc3)cc2)c(CCN2CCSCC2)s1 [Compound 228, N-hydroxy-4-(5-{4-[2-methyl-5-(2-thiomorpholin-4-yl-ethyl)-thiazol-4-yl]-phenoxy}-pentyloxy)-benzamidine] | 31 ± 4.8^ab % | 20 ± 5.8^ac % | 49 ± 3.5 |
| COCCN(C)c1nc(-c2ccc(OCCCCCOc3ccc(C(=N)NO)cc3)cc2)c(CN2CCOCC2)s1 [Compound 319, N-hydroxy-4-[5-(4-{2-[(2-methoxy-ethyl) -methyl-amino]-5-morpholin-4-ylmethyl-thiazol-4-yl}-phenoxy)-pentyloxy]-benzamidine] | 25 ± 2.6^ab % | 11 ± 3.3^ac % | 54 ± 5.9 |
| N=C(NO)c1ccc(OCCCCCOc2ccc(-c3nc(N4CCCCC4)sc3N3CCOCC3)cc2)cc1 [Compound 337, N-hydroxy-4-{5-[4-(5-morpholin-4-yl-2-piperidin-1-yl-thiazol-4-yl)-phenoxy]-pentyloxy}-benzamidine] | 20 ± 3.0^ab % | 16 ± 3.6^ac % | 53 ± 3.7 |
| CCCCc1sc(N(C)CCN2CCOCC2)nc1-c1ccc(OCCCCCOc2ccc(C(=N)NO)cc2)cc1 [Compound 144, N-hydroxy-4-[5-(4-{5-butyl-2-[methyl-(2-morpholinoethyl)amino]-1,3-thiazol-4-yl}phenoxy)pentyloxy]-benzamidine] | 44 ± 10.5^ab % | 37 ± 4.3^ac % | 82 ± 6.7 |
| Cc1sc(NC(=O)c2ccncc2)nc1-c1ccc(OCCCCCOc2ccc(C(=N)NO)cc2)cc1 [Compound 91, N-hydroxy-4-{5-[4-(5-methyl-2-(4-pyridylcarbonyl)amino-1,3-thiazol-4-yl)phenoxy]pentyloxy}-benzamidine] | 35 ± 2.7^ab % | 32 ± 7.0^ac % | 60 ± 8.8 |
| CCc1sc(NS(=O)(=O)CC)nc1-c1ccc(OCCCCCOc2ccc(C(=N)NO)cc2)cc1 [Compound 95, N-hydroxy-4-{5-[4-(2-ethanesulphonylamino-5-ethyl-1,3-thiazol-4-yl)phenoxy]pentyloxy}-benzamidine] | 37 ± 10.3^ab % | 33 ± 6.8^ac % | 90 ± 5.4 |
| N=C(NO)c1ccc(OCCCCCOc2ccc(-c3nc(-c4cccnc4)sc3Cc3ccccc3)cc2)cc1 [Compound 41, N-hydroxy-4-{5-[4-(5-benzyl-2-pyridin-3-yl-1,3-thiazol-4-yl)phenoxy]pentyloxy}-benzamidine] | 29 ± 5.0^b % | 31 ± 2.6^c % | 31 ± 9.4 |
| Cc1nc(-c2ccc(OCCCCCOc3ccc(C(=N)NO)cc3)cc2)c(CCN2CC(C)OC(C)C2)s1 (stereo not drawn) [Compound 227, N-hydroxy-4-[5-(4-{5-[2-(2,6-dimethyl-morpholin-4-yl)-ethyl]-2-methyl-thiazol-4-yl}-phenoxy)-pentyloxy]-benzamidine] | 24 ± 5.0^ab % | 17 ± 4.4^ac % | 42 ± 4.6 |
| CC(C)c1sc(N(C)Cc2cccnc2)nc1-c1ccc(OCCCCCOc2ccc(C(=N)NO)cc2)cc1 [Compound 141, N-hydroxy-4-[5-(4-{5-isopropyl-2-[methyl-(pyridin-3-ylmethyl)amino]-1,3-thiazol-4-yl}phenoxy)pentyloxy]-benzamidine] | 65 ± 2.8% | 60 ± 7.5^ac % | 84 ± 8.8 |
| N=C(NO)c1ccc(OCCCCCOc2ccc(-c3csc(C4CCCCC4)n3)cc2)cc1 [Compound 8, N-hydroxy-4-{5-[4-(2-cyclohexyl-1,3-thiazol-4-yl)phenoxy]pentyloxy}-benzamidine] | 22 ± 3.4^ab % | 27 ± 3.8^ac % | 65 ± 10.4 |
| Cc1nc(-c2ccc(OCCCCCOc3ccc(C(=N)NO)cc3)cc2)c(CCNCCCOC(C)C)s1 [Compound 220, N-hydroxy-4-[5-(4-{5-[2-(3-isopropoxy-propylamino)-ethyl]-2-methyl-thiazol-4-yl}-phenoxy)-pentyloxy]-benzamidine] | 53 ± 4.7^ab % | 40 ± 5.1^ac % | 69 ± 3.2 |
| Cc1nc(-c2ccc(OCCCCCOc3ccc(C(=N)NO)cc3)cc2)c(C2CCCC2)s1 [Compound 43, N-hydroxy-4-{5-[4-(5-cyclopentyl-2-methyl-1,3-thiazol-4-yl)phenoxy]pentyloxy}-benzamidine] | 32 ± 6.6^ab % | 40 ± 7.8^c % | 74 ± 14.6 |
| CN(C)c1nc(-c2ccc(OCCCCCOc3ccc(C(=N)NO)cc3)cc2)c(CCN2CCOCC2)s1 [Compound 266, N-hydroxy-4-(5-{4-[2-dimethylamino-5-(2-morpholin-4-yl-ethyl)-thiazol-4-yl]-phenoxy}-pentyloxy)-benzamidine] | 36 ± 9.6^ab % | 26 ± 4.3^ac % | 64 ± 4 |
| CCCCCc1nc(-c2ccc(OCCCCCOc3ccc(C(=N)NO)cc3)cc2)c(C)s1 [Compound 15, N-hydroxy-4-{5-[4-(5-methyl-2-pentyl-1,3-thiazol-4-yl)phenoxy]pentyloxy}-benzamidine] | 43 ± 11.4% | 45 ± 9.2^ac % | 69 ± 5.5 |
